ChEMBL document CHEMBL1154173, “L-proline-catalysed facile green protocol for the synthesis and antimycobacterial evaluation of [1,4]-thiazines” (2009)
Converted amounts (≈) assume the structure as drawn.

Legend:
[1] = test system: Mycobacterium tuberculosis; assay: Antimycobacterial activity against Mycobacterium tuberculosis H37Rv by agar dilution method; format: functional
[2] = test system: Mycolicibacterium smegmatis; assay: Antimycobacterial activity against […] Mycobacterium smegmatis MC2 by agar dilution method; format: functional

Row | Structure (SMILES) | MIC [1] [µM] | MIC [2] [µM]
1 | CCOC(=O)C1C(c2ccccc2Br)N(C)C(c2ccccc2Br)C(C(=O)c2ccc(Cl)cc2)S1(=O)=O (racemic) | 9.33 (≈ 6.25 µg/mL) | 18.7 (≈ 12.5 µg/mL)
2 | CCOC(=O)C1C(c2ccco2)N(C)C(c2ccco2)C(C(=O)c2ccc(Cl)cc2)S1(=O)=O (racemic) | 6.36 (≈ 3.13 µg/mL) | 50.8 (≈ 25 µg/mL)
3 | CCOC(=O)C1C(c2ccco2)NC(c2ccco2)C(C(=O)c2ccc(Cl)cc2)S1(=O)=O (racemic) | 6.55 (≈ 3.13 µg/mL) | –
4 | CCOC(=O)C1C(c2cccc3ccccc23)NC(c2cccc3ccccc23)C(C(=O)c2ccc(Cl)cc2)S1(=O)=O (racemic) | 10.4 (≈ 6.25 µg/mL) | 20.9 (≈ 12.5 µg/mL)
5 | CCOC(=O)C1C(c2ccc(Cl)cc2)N(Cc2ccccc2)C(c2ccc(Cl)cc2)C(C(=O)c2ccc(Cl)cc2)S1(=O)=O (racemic) | 9.51 (≈ 6.25 µg/mL) | 38 (≈ 25 µg/mL)
6 | CCOC(=O)C1C(c2cccc([N+](=O)[O-])c2)N(C)C(c2cccc([N+](=O)[O-])c2)C(C(=O)c2ccc(Cl)cc2)S1(=O)=O (racemic) | 20.8 (≈ 12.5 µg/mL) | 41.5 (≈ 25 µg/mL)
7 | CCOC(=O)C1C(c2ccccc2)N(Cc2ccccc2)C(c2ccccc2)C(C(=O)c2ccc(Cl)cc2)S1(=O)=O (racemic) | 42.5 (≈ 25 µg/mL) | 42.5 (≈ 25 µg/mL)
8 | CCOC(=O)C1C(c2cccc(F)c2)N(Cc2ccccc2)C(c2cccc(F)c2)C(C(=O)c2ccc(Cl)cc2)S1(=O)=O (racemic) | 10 (≈ 6.25 µg/mL) | 40.1 (≈ 25 µg/mL)
9 | CCOC(=O)C1C(c2ccc(Cl)cc2)N(C)C(c2ccc(Cl)cc2)C(C(=O)c2ccc(Cl)cc2)S1(=O)=O (racemic) | 5.39 (≈ 3.13 µg/mL) | 43 (≈ 25 µg/mL)
10 | CCOC(=O)C1C(c2ccccc2[N+](=O)[O-])NC(c2ccccc2[N+](=O)[O-])C(C(=O)c2ccc(Cl)cc2)S1(=O)=O (racemic) | 3.03 (≈ 1.78 µg/mL) | –
11 | CCOC(=O)C1C(c2ccc(C)cc2)NC(c2ccc(C)cc2)C(C(=O)c2ccc(Cl)cc2)S1(=O)=O (racemic) | 1.48 (≈ 0.779 µg/mL) | 2.97 (≈ 1.56 µg/mL)
12 | CCOC(=O)C1C(c2ccccc2OC)NC(c2ccccc2OC)C(C(=O)c2ccc(Cl)cc2)S1(=O)=O (racemic) | 5.61 (≈ 3.13 µg/mL) | 11.2 (≈ 6.25 µg/mL)
13 | CCOC(=O)C1C(c2ccc(Cl)cc2Cl)NC(c2ccc(Cl)cc2Cl)C(C(=O)c2ccc(Cl)cc2)S1(=O)=O (racemic) | 1.23 (≈ 0.782 µg/mL) | –
14 | CCOC(=O)C1C(c2ccc(OC)cc2)NC(c2ccc(OC)cc2)C(C(=O)c2ccc(Cl)cc2)S1(=O)=O (racemic) | 0.72 (≈ 0.402 µg/mL) | 1.4 (≈ 0.781 µg/mL)
15 | CCOC(=O)C1C(c2ccccc2)N(C)C(c2ccccc2)C(C(=O)c2ccc(Cl)cc2)S1(=O)=O (racemic) | 24.4 (≈ 12.5 µg/mL) | 48.8 (≈ 25 µg/mL)
16 | CCOC(=O)C1C(c2ccc(Cl)cc2)NC(c2ccc(Cl)cc2)C(C(=O)c2ccc(Cl)cc2)S1(=O)=O (racemic) | 2.75 (≈ 1.56 µg/mL) | 11 (≈ 6.25 µg/mL)

Row | Structure (SMILES) | MIC [1] [µM] | MIC [2] [µM]
17 | CCOC(=O)C1C(c2ccccc2)NC(c2ccccc2)C(C(=O)c2ccc(Cl)cc2)S1(=O)=O (racemic) | 12.6 (≈ 6.25 µg/mL) | 50.2 (≈ 25 µg/mL)
18 | CCOC(=O)C1C(c2ccc(N(C)C)cc2)NC(c2ccc(N(C)C)cc2)C(C(=O)c2ccc(Cl)cc2)S1(=O)=O (racemic) | 10.7 (≈ 6.25 µg/mL) | –
19 | CCOC(=O)C1C(c2ccccc2C)N(C)C(c2ccccc2C)C(C(=O)c2ccc(Cl)cc2)S1(=O)=O (racemic) | 11.6 (≈ 6.25 µg/mL) | 23.1 (≈ 12.5 µg/mL)
20 | CCOC(=O)C1C(c2ccc(C)cc2)N(C)C(c2ccc(C)cc2)C(C(=O)c2ccc(Cl)cc2)S1(=O)=O (racemic) | 5.8 (≈ 3.13 µg/mL) | –
21 | CCOC(=O)C1C(c2cccc([N+](=O)[O-])c2)NC(c2cccc([N+](=O)[O-])c2)C(C(=O)c2ccc(Cl)cc2)S1(=O)=O (racemic) | 5.32 (≈ 3.13 µg/mL) | 10.6 (≈ 6.25 µg/mL)
22 | CCOC(=O)C1C(c2cccc(F)c2)NC(c2cccc(F)c2)C(C(=O)c2ccc(Cl)cc2)S1(=O)=O (racemic) | 5.86 (≈ 3.13 µg/mL) | –
23 | CCOC(=O)C1C(c2cccs2)NC(c2cccs2)C(C(=O)c2ccc(Cl)cc2)S1(=O)=O (racemic) | 12.2 (≈ 6.25 µg/mL) | 12.2 (≈ 6.25 µg/mL)
24 | CCOC(=O)C1C(c2ccc([N+](=O)[O-])cc2)NC(c2ccc([N+](=O)[O-])cc2)C(C(=O)c2ccc(Cl)cc2)S1(=O)=O (racemic) | 0.68 (≈ 0.4 µg/mL) | 10.6 (≈ 6.25 µg/mL)
25 | CCOC(=O)C1C(c2ccc(C)cc2)N(Cc2ccccc2)C(c2ccc(C)cc2)C(C(=O)c2ccc(Cl)cc2)S1(=O)=O (racemic) | 20.3 (≈ 12.5 µg/mL) | 40.6 (≈ 25 µg/mL)
26 | CCOC(=O)C1C(c2ccc(OC)cc2)N(Cc2ccccc2)C(c2ccc(OC)cc2)C(C(=O)c2ccc(Cl)cc2)S1(=O)=O (racemic) | 9.64 (≈ 6.25 µg/mL) | –
27 | CCOC(=O)C1C(c2ccc(F)cc2)N(Cc2ccccc2)C(c2ccc(F)cc2)C(C(=O)c2ccc(Cl)cc2)S1(=O)=O (racemic) | 5.02 (≈ 3.13 µg/mL) | 40.1 (≈ 25 µg/mL)
28 | CC[C@@H](CO)NCCN[C@@H](CC)CO [ETHAMBUTOL] | 7.64 (≈ 1.56 µg/mL) | –
29 | NNC(=O)c1ccncc1 [ISONIAZID] | 0.36 (≈ 0.0494 µg/mL) | 45.6 (≈ 6.25 µg/mL)
30 | NC(=O)c1cnccn1 [PYRAZINAMIDE] | 50.8 (≈ 6.25 µg/mL) | –
31 | CO[C@H]1/C=C/O[C@@]2(C)Oc3c(C)c(O)c4c(O)c(c(/C=N/N5CCN(C)CC5)c(O)c4c3C2=O)NC(=O)/C(C)=C\C=C\[C@H](C)[C@H](O)[C@@H](C)[C@@H](O)[C@@H](C)[C@H](OC(C)=O)[C@@H]1C [RIFAMPIN] | 0.12 (≈ 0.0988 µg/mL) | –
